# Reference: US7763626B2, “Compositions and method for enhancing the therapeutic activity of opiods in treatment of pain” (Trustees of Dartmouth College, priority 2004, dated 2010)
# Experiments:
# Type in all cases: in vivo, rat
# Male Sprague-Dawley rats = test: Hot water tail-flick test, morphine withdrawal-induced thermal hyperalgesia
# Description: Male Sprague-Dawley rats (175-200 grams, Harlan, Indianapolis, Ind.) were divided into two groups (n=8 per group). Rats received subcutaneous injections of either saline or morphine (10 mg/kg; Sigma, St. Louis, Mo.) twice daily at 0800 to 0900 and 1600-1700 hour for 5 days in order to induce opioid tolerance. Chronic morphine withdrawal-induced hyperalgesia and allodynia were assessed in the animals 16 hours after the last injection of morphine. Following the recording of morphine withdrawal-induced hyperalgesia and allodynia, animals were treated with morphine (5 microgram) acutely via lumbar intrathecal injection to study the expression of morphine tolerance. Acute analgesic activity or intrathecal morphine in morphine-tolerant and chronic aline-treated rats were evaluated by mechanical (Analgesy-Meter) and thermal (tail-flick) test paradigms. Behaviors recorded prior to the acute administration of intrathecal morphine served as the basal latency measures.
# With an understanding of the effects of morphine alone, separate groups of rats (n=8) received with saline or morphine (10 mg/kg subcutaneously, twice daily for 5 days) and also received once daily injections (at 1100 to 1200 hour) of propentofylline (1 and 10 micrograms) or saline via direct lumbar puncture during the induction of morphine tolerance. Again, chronic morphine withdrawal-induced hyperalgesia and allodynia were assessed in the animals 16 hours after the last subcutaneous morphine injection. Following the recording of morphine withdrawal-induced hyperalgesia and allodynia, animals were treated with morphine (5 micrograms) acutely via lumbar puncture to study the expression of morphine tolerance. As before, the acute analgesic activity of intrathecal morphine in morphine-tolerant and saline-injected rats was evaluated by mechanical (Analgesy-Meter) and thermal (tail-flick) test paradigms. Behavior recorded prior to the acute administration of intrathecal morphine served as the basal latency.
# Thermal nociceptive thresholds were evaluated by the hot water tail-flick test that has been described previously (Bian, D. et al. 1999. Brain Res. 831:55-63). The test consisted of immersing the tail of the rats in water maintained at 49° C. and then recording the latency to a rapid flick. A 15 second cut-off time was used. Again, the total number of responses elicited during three successive trials separated by at least 10 minutes was recorded and then expressed as the % maximal possible effect. The tester was again blinded to the test groups.
# GLT-1 mRNA = test: Real time RT-PCR of ipsilateral lumbar spinal cord after L5 spinal nerve transection; conditions: daily intrathecal propentofylline 10 μg
# Description: (§1) Experiments were performed to determine how propentofylline-induced suppression of glial activation contribute to reduced behavioral hypersensitivity after nerve injury. In a preventative paradigm, 10 μg of propentofylline (Sigma) to male Sprague-Dawley rats in 40 μl of sterile saline, or saline vehicle alone was administered intrathecally (i.t.) by lumbar puncture at the L4/5 level under brief halothane anesthesia (n=6-8/group). Treatment began one hour prior to L5 spinal nerve transection and continued daily in the evening until day 4 or 12 post-transection. Rats received either an L5 spinal nerve transection or sham surgery on day 0. The development of mechanical allodynia was monitored as described above in the morning at approximately 15 hours post-propentofylline or saline injection. Rats were euthanized on day 4 or 12 post-transection and tissue was further processed by real time RT-PCR, Western blot, or immunohistochemistry for determination of levels and rate of synthesis of the glutamate transporters GLT-1 and GLAST.
# (§2) Tissue was collected from 4-5 rats/group on postoperative days 4 or 12. In order to obtain both mRNA and protein from the same tissue sample, the L5 region of the spinal cord (ipsilateral to the injury), was isolated and placed in PBS supplemented with protease inhibitor cocktail (1:1000, Sigma, St. Louis, Mo.) and RNase inhibitor (0.75 U/μL Ambion, Austin, Tex.). […]
# (§3) Real time RT-PCR reactions were carried out in a total reaction volume of 25 uL containing a final concentration of 1.5 U Platinum Taq DNA polymerase (Invitrogen); 20 mM Tris HCl (pH 8.4); 50 mM KCl; 3 mM MgCl2; 200 uM dGTP, dCTP, and dATP; 400 uM dUTP and 1 U of UDG (uracyl DNA glycosylase); 900 nM of forward and reverse primers; 300 nM Taqman probe; and 5 uL of a 10-fold dilution of cDNA (50 ng) from the RT step. […] The iCycler Multicolor Real-Time PCR detection system (Bio-Rad) was used to quantify PCR product. The fluorescence and threshold values obtained were used to compare the relative amount of target mRNA in experimental groups to those of controls (Livak and Schmittgen 2001). […]
# GLAST mRNA = test: as above; conditions: day 4; compared to L5 spinal nerve transection alone; did not attain statistical significance
# Description: as §1, §2, §3
smiles,measurement,setting,value
CCCn1cnc2c1c(=O)n(CCCCC(C)=O)c(=O)n2C [propentofylline],Tail-flick latency,"Male Sprague-Dawley rats; 16 hours after last injection, morphine 10 mg/kg s.c. twice daily 5 days and/or propentofylline 10 micrograms intrathecally once daily 5 days",5.1 ± 0.3 s
same,morphine withdrawal-induced noxious thermal hyperalgesia,"Male Sprague-Dawley rats; 16 hours after last morphine injection (10 mg/kg s.c. twice daily 5 days), propentofylline 1 and 10 micrograms intrathecally for 5 days during induction of tolerance",significantly attenuated
same,GLT-1 mRNA level,"GLT-1 mRNA; day 4 post-transection, vs sham-operated and L5 nerve transected rats",significantly increased
same,GLT-1 mRNA level,"GLT-1 mRNA; day 12 post-transection, vs L5 nerve transected rats",significantly increased
same,GLAST mRNA level,GLAST mRNA,slight decrease
